Laboratory results as given in patent publication US11116784B2, “Niacinamide (NAM) in ischemic tissue injury” (Beth Israel Deaconess Medical Center, Inc., priority 2016, dated 2021).
Entries after “also recorded” stand apart in the source; their conditions may differ.

Legend:
[1] = test system: NNMT in cultured renal tubular cells (IMCD3); conditions: 24 hr exposure to 1-Me-Nam
Method: LC-MS assays were developed for multiplex quantification of Nam, NAD, and β-hydroxybutyrate (β-OHB) from cellular experiments. NAD measurements reflect total NAD^+ plus NADH. Briefly, conditioned medium was extracted with methanol (80% methanol final concentration) spiked with isotopic standards for Nam and β-OHB (CDN Isotopes, Inc.). Precipitated proteins were removed by centrifugation, and supernatants were analyzed directly. For analysis of cell lysates, cells were washed with ice-cold PBS, scraped and lysed on dry ice into methanol containing isotopic standards. After extraction, cell and media supernatants were analyzed by LC-MS/MS using reverse-phase chromatography (NAM and NAD/NADH) or hydrophilic interaction chromatography (β-OHB) coupled to tandem mass spectrometry using an API 5000 triple quadruple mass spectrometer. Analytes were quantified by multiple reaction monitoring using the following m/z transitions: β-OHB 103.1>59, β-OHB IS 105.1>60, NAM 123.3>80.2, NAM IS 127.3>84.2, NAD/NADH 664.2>542.0. Eluting peaks were quantified by area under the curve (AUC).
Mouse intermedullary collecting duct (IMCD3) cells were obtained from ATCC. […] Cells were transfected with siRNA targeting mouse PGC1, HCAR2 or a negative control siRNA (Qiagen) for 24 h. […] Prostaglandin E2 (PGE2) was measured in the conditioned media 24-72 hours after treatment.

[2] = test system: mice with established AKI; test: Nam rescue of established ischemic AKI (single dose 18 h after reperfusion); assay type: in vivo, mouse; conditions: Nam 400 mg/kg IP x 1, 18 h after onset of reperfusion
Method: (§1) Renal ischemia-reperfusion injury (IRI) was performed on 8-12 week-old males through two small paramedial dorsal incisions by applying a microvascular clamp to each renal pedicle for 20 minutes. Mice were anesthetized with isoflurane for the duration of surgery and warmed to 37° C. using a servo-controlled heating pad. Incisions were closed in two layers and mice were revived with 1 ml warm saline injected intraperitoneally.
(§2) All chemicals were purchased from Sigma-Aldrich unless otherwise noted. Niacinamide was given by intraperitoneal injection of 400 mg/kg/day×4 days in saline, with the final dose an hour prior to IRI surgery. In rescue experiments, the same dose was administered once 18 hours after reperfusion. Indomethacin was given by intraperitoneal injection of 10 mg/kg in 0.1 M sodium carbonate/saline an hour prior to IRI. […]
(§3) All measurements were performed in a blinded fashion by an independent facility. Creatinine was analyzed by LC/MS-MS at the University of Alabama Birmingham O'Brien Core Center for Acute Kidney Injury Research (NIH P30-DK079337). […]

[3] = test system: healthy 8-12 wk old male mice; test: Renal blood flow by Doppler ultrasound in healthy mice; assay type: in vivo, mouse; conditions: Nam 400 mg/kg intraperitoneal x 1; 4 h after injection vs pre-Nam
Description: The full method is previously described (Tran et al. J Clin Invest 2011; 121, 4003-4014). Briefly, mice were lightly anesthetized, secured to a heat-controlled stage, and continuously monitored for respiration, ECG, and core temperature. A high frequency, high resolution digital imaging platform with linear array technology and equipped with a high-frequency linear array probe MS550D (22-55 MHz) was used throughout the study (Vevo 2100 Visual Sonics). The flow volume was modeled as a circular cylinder of length equal to the average velocity time integral and diameter measured empirically (n=3 cardiac cycles), then multiplied by the heart rate (bpm), then converted from mm^3/min to ml/min. All measurements and analyses were performed by a single blinded operator (EVK).

[4] = test system: PGC1α^−/− animals; test: Intracardiac lipids after Nam; assay type: in vivo, mouse; conditions: Nam 400 mg/kg IP
[5] = test system: PGC1α KO mice; test: Cardiac IRI with pressure volume loops in PGC1α KO mice; assay type: in vivo, mouse; conditions: Nam 400 mg/kg IP, one dose before IRI, two after; 2 weeks after 45 min coronary occlusion
Method: For cardiac IRI surgery, mice were anesthetized, intubated, and placed on a rodent ventilator. After thoracotomy, the left anterior descending artery was identified and ligated with a 7-0 silk suture tied around a specialized 30 gauge catheter. The animal remained under anesthesia and ventilation for 45 minutes of ischemia. Reperfusio was achieved by cutting the suture and re-establishing arterial perfusion. The thoracotomy was then sutured closed and animals recovered with warmed saline injected intraperitoneally.
Pressure volume loops were performed to assess cardiac parameters. Cardiac function was measured in mice using the left ventricle (LV) pressure-volume and echocardiography 2 weeks after cardiac IRI or sham control procedure. After 2% isolfurane inhalant anesthesia, the pressure-volume parameters were measured using a 1.4 French microtip pressure-volume catheter. The catheter was first inserted into the right common carotid artery and then gently advanced into the LV to obtain LV hemodynamic measurements. Data were recorded using a Powerlab system. Beat-by-beat pressure-volume parameters including heart rate, stroke volume, stroke work, and cardiac output were measured and analyzed using Cardiosoft Pro software. […] Two-dimensional guided M-mode images were recorded. […]

[6] = test system: renal tubular cells (IMCD3); test: PGE2 in conditioned media of renal tubular cells; assay type: cell-based, mouse
Method: Mouse intermedullary collecting duct (IMCD3) cells were obtained from ATCC. […] Cells were transfected with siRNA targeting mouse PGC1, HCAR2 or a negative control siRNA (Qiagen) for 24 h. Niacin, mepenzolate bromide, β-hydroxybutyrate, the NAMPT inhibitor FK866 ([…] et al. Cancer research 2003; 63, 7436-7442), and niacinamide were diluted to the indicated concentrations in serum-free cell culture medium. Prostaglandin E2 (PGE2) was measured in the conditioned media 24-72 hours after treatment.

[7] = test system: PGC1α^−/− mice; test: Renal ischemia-reperfusion injury (IRI) in PGC1α−/− mice with Nam pretreatment; assay type: in vivo, mouse
Method: as §1, §2, §3
For metabolomics measurements, snap frozen kidneys were cut to equal weights (20 mg/specimen) and mechanically homogenized into 4 volumes of ice-cold water. […] In brief, amino acids, amines, acylcarnitines, nucleotides, and other cationic polar metabolites were measured in 10 μl of kidney homogenate using hydrophilic interaction liquid chromatography coupled with nontargeted, positive ion mode MS analysis on an Exactive Plus Orbitrap MS (Thermo Scientific). Polar and non-polar lipids were measured in 10 μl of kidney homogenate using C8 chromatography and nontargeted, positive ion mode MS analysis on a Q Exactive MS (Thermo Scientific). […] Results were analyzed in MetaboAnalyst (Xia et al., Nucleic Acids Res. 40 (Web Server issue): W127-33 (2012)). […]

[8] = test system: explanted hearts; test: NAD in explanted hearts stored in UW Belzer preservation solution; parameters: species or system mouse; conditions: 500 μM, 1 mM or 10 mM Nam in ice-cold UW Belzer solution, 3 hours, vs UW Belzer alone
Method: (§4) A, To mimic donor organ harvest, deeply anesthetized mice were flushed intravascularly with ice-cold UW Belzer solution, then placed into ice cold solutions of UW-Belzer with or without 5 μM of P7C3, NAMPT agonist. After 16 hours for the explanted kidneys, organs were analyzed for levels of NAD (pg/μg of protein). B, To mimic donor organ harvest, deeply anesthetized mice were flushed intravascularly with ice-cold UW Belzer solution, then placed into ice cold solutions of UW-Belzer with or without 500 μM, 1 mM or 10 mM Nam. After 3 hours for the explanted hearts, organs were analyzed for levels of NAD (pg/μg of protein). C, NAMPT is the rate-limiting enzyme for the conversion of Nam to NAD via the intermediate NMN (nicotinamide mononucleotide).
(§5) To further expand upon the results from the retrospective cohort of patient study, the conditions of donor organ harvest were mimicked using mice in hopes of improving post-implantation graft performance (FIG. 23). In this experiment, kidney and heart were harvested and Nam or P7C3, a NAMPT agonist, were added to the preservation solution. Upon incubation of kidney with P7C3 in the preservation solution, NAD levels increased as compared to kidney incubated with the UW Belzer solution alone (FIG. 23A). […]

[9] = test system: mice; test: Renal NAD and β-OHB after exogenous Nam in mice; assay type: in vivo, mouse
Method: All chemicals were purchased from Sigma-Aldrich unless otherwise noted. Niacinamide was given by intraperitoneal injection of 400 mg/kg/day×4 days in saline, with the final dose an hour prior to IRI surgery. In rescue experiments, the same dose was administered once 18 hours after reperfusion. Indomethacin was given by intraperitoneal injection of 10 mg/kg in 0.1 M sodium carbonate/saline an hour prior to IRI. […] In brief, amino acids, amines, acylcarnitines, nucleotides, and other cationic polar metabolites were measured in 10 μl of kidney homogenate using hydrophilic interaction liquid chromatography coupled with nontargeted, positive ion mode MS analysis on an Exactive Plus Orbitrap MS (Thermo Scientific). Polar and non-polar lipids were measured in 10 μl of kidney homogenate using C8 chromatography and nontargeted, positive ion mode MS analysis on a Q Exactive MS (Thermo Scientific). […] Results were analyzed in MetaboAnalyst (Xia et al., Nucleic Acids Res. 40 (Web Server issue): […]-33 (2012)). PGE2 was measured in mouse kidney tissue by ELISA (Cayman Chemical). β-OHB (Cayman Chemical) and total NAD (BioVision) was measured in mouse kidney tissue by colorimetric assays. […]

[10] = test system: mice; test: Cisplatin nephrotoxicity model; assay type: in vivo, mouse; conditions: cisplatin 25 mg/kg IP day 0; Nam 400 mg/kg IP on day −1 and day 0
Description: All chemicals were purchased from Sigma-Aldrich unless otherwise noted.

[11] = test system: explanted kidneys; test: NAD in explanted kidneys stored in UW Belzer preservation solution; parameters: species or system mouse; conditions: 5 μM P7C3 in ice-cold UW Belzer solution, 16 hours, vs UW Belzer alone
Method: as §4, §5

[12] = test system: iNephPGC1α mice; test: Renal IRI in iNephPGC1α mice with inhibition of β-OHB signaling or prostaglandin synthesis; assay type: in vivo, mouse; conditions: 10 mg/kg IP one hour prior to IRI
Method: as §1, §2, §3

C[n+]1cccc(C(N)=O)c1 [1-Me-Nam, 1-methyl-niacinamide]
NAD in IMCD3 cells [1]: dose-dependent induction of NAD

NC(=O)c1cccnc1 [Nam, niacinamide]
renal function (serial serum creatinine) in established AKI [2]: significantly improved; also recorded: attenuated; also recorded: rapidly improved
renal blood flow [3]: improved
intracardiac di- and tri-acylglycerols (DAG, TAG) [4]: decline markedly
intracardiac phospholipids [4]: largely unaltered
contraction (dP/dt max) [5]: improved
relaxation (dP/dt min) [5]: improved
PGE2 secretion ([6]; Nam 1 μM for 24 h): augmented
renal Nam ([7]; Nam 400 mg/kg IP x 4 d, with and without IRI 24 h before tissue collection, p<0.001): increased
post-ischemic fat accumulation (Oil Red O) ([7]; Nam pretreatment 400 mg/kg IP x 4 d, 24 h after IRI): normalized
post-ischemic AKI (serum creatinine) ([7]; PGC1α−/− mice, Nam 400 mg/kg/day IP x 4 d, last dose 1 h before IRI): completely prevented
NAD levels in explanted hearts [8]: increased; also recorded: can boost NAD levels
renal NAD ([9]; 4 h after a single IP Nam dose (100-400 mg/kg)): dose-dependently increased; also recorded: can increase renal NAD levels
renal β-OHB accumulation relative to normal circulating concentrations ([9]; Nam 400 mg/kg IP x 4 d, p<0.0001): ten-fold
cisplatin-induced AKI (serial serum creatinine) [10]: prevented

OC(CNc1ccccc1)Cn1c2ccc(Br)cc2c2cc(Br)ccc21 (stereo not shown) [P7C3]
NAD levels in explanted kidneys [11]: increased; also recorded: can boost NAD levels

COc1ccc2c(c1)c(CC(=O)O)c(C)n2C(=O)c1ccc(Cl)cc1 [indomethacin]
renal protection (serum creatinine 24 h after IRI) [12]: abolished

C[N+]1(C)CCCC(OC(=O)C(O)(c2ccccc2)c2ccccc2)C1 (stereo not shown) [mepenzolate bromide]
renal protection (serum creatinine 24 h after IRI) [12]: abolished

CC(O)CC(=O)O (stereo not drawn) [β-OHB, beta-hydroxybutyrate]
PGE2 secretion in PGC1α-silenced cells ([6]; exogenous β-OHB 5 mM, p<0.0001): still able to induce PGE2 secretion
